# “Also recorded” adds a separate entry of the source.
# Experiments:
# [1] = test system: SHIP2; test: Malachite green phosphatase release assay, SHIP2; type: biochemical, human; details: for SHIP2 Inhibition: Malachite green assay at 1mM
# Excerpt: Detection of phosphatase enzymatic activity.
# [2] = test system: HCT116; test: MTT cell viability assay, HCT116; type: cell-based; details: for cell viability (MTT): HCT116
# [3] = test system: CACO-2; test: MTT cell viability assay, CACO-2; type: cell-based; details: for cell viability (MTT): CACO-2
# [4] = test system: breast cancer cells; details: cited from earlier work
# [5] = test system: SHIP1; test: Malachite green phosphatase release assay, SHIP1; details: for SHIP1 Inhibition: Malachite green assay at 1mM
# Protocol: Compounds were dissolved in 100% DMSO and then diluted to indicate final concentrations of performed assays (5% DMSO final concentration).
# For this purpose, OPM2 cells were lysed in IP-lysis buffer (20 mM Tris, 150 mM NaCl, 1 mM EDTA, 1 mM EGTA, 1% Triton X100, 1 mM PMSF, Halt protease inhibitor), and SHIP1 or OCRL were immuno-precipitated using mouse IgG antibodies from Santa Cruz Biotechnology (Santa Cruz, Calif.). Beads were washed four times with IP lysis buffer and once with TBS/MgCl2 (10 mM) and resuspended in TBS/MgCl2. SHIP inhibitors (200 μM) were added to the beads for 5 minutes, after which immunoprecipitated SHIP1 was incubated in the presence of 100 μM PtdIns(3,4,5)P3 (Echelon Biosciences, Salt Lake City, Utah), whereas immunoprecipitated OCRL was incubated in the presence of 100 μM PtdIns(4,5)P2 for 30 minutes. Malachite green solution was added according to manufacturer's instructions, and the plate was read after 20 minutes.
# [6] = test system: PKB, pS6 and ERK phosphorylation in HCT116 cells; test: Western blotting of signaling, HCT116 cells; type: cell-based, human; details: HCT116, serum starved; K149 10 μM 1 h, LY2940002 20 μM 1 h, EGF 10 ng/mL 15 minutes
# Protocol: (§1) Western blotting. HCT116 and CACO-2 cells were serum starved by incubating for 2 h, after which cells were stimulated for 15 minutes with EGF (10 ng/mL), or stimulated for 1 h with LY2940002 (20 μM) or SHIP2 inhibitor K149 (10 μM). Subsequently, cells were washed with PBS and lysed on ice in 300 μL 2× concentrated Laemmli buffer (100 mM Tris-HCl (pH 6.8), 200 mM dithiothreitol, 4% SDS, 0.1% bromophenol blue, 20% glycerol, and 2% DTT) and boiled for 5 minutes at 95° C. Cell extracts were resolved by SDS-PAGE and transferred to polyvinylidene difluoride membranes (Merck chemicals BV, Amsterdam, the Netherlands). Membranes were blocked in 50% odyssey blocking buffer (LI-COR Biosciences, Lincoln, Nebr.) in PBS/0.05% Tween-20 and incubated overnight at 4° C. with primary antibody. After washing in PBS-T, membranes were incubated with IRDye® antibodies (LI-COR Biosciences, Lincoln, Nebr.) for 1 h. Detection was performed using Odyssey reader and analyzed using manufacturers software.
# [7] = test system: PKB, pS6 and ERK phosphorylation in CACO-2 cells; test: Western blotting of signaling, CACO-2 cells; type: cell-based, human; details: CACO-2, serum starved; K149 10 μM 1 h, LY2940002 20 μM 1 h, EGF 10 ng/mL 15 minutes
# Protocol: as §1
# [8] = test system: MDSC, iTreg cells, nTreg cells, neutrophils; test: Immune cell numbers and frequencies by flow cytometry in dosed mice; type: in vivo; details: 10 mg/kg in 5% DMSO for 6 days
# Protocol: Mice were dosed for 6 days with […]
# [9] = test system: K562; test: Cell growth, K562 leukemia cell line; details: K562, increasing concentrations, compared with K103
# Protocol: (§2) Cells were treated in triplicate or more with increasing concentrations of compounds.
# (§3) All cell culture media were supplemented with 100 U/mL penicillin, 100 mg/mL streptomycin (Life technologies, Bleiswijk, NL) and 10% Fecal Calf Serum (FCS, Sigma-Aldrich, St. Louis, USA). Cells were maintained at 37° C. in a 5% CO2 humidified setting.
# [10] = test system: MCF-7; test: Cell growth, MCF-7 breast cancer cell line; details: MCF-7, increasing concentrations, compared with K103
# Protocol: as §2, §3
# [11] = test system: OPM2; test: Cell growth, OPM2 multiple myeloma cell line; details: OPM2, increasing concentrations, compared with K103
# Protocol: as §2, §3
# [12] = test system: MDA-MB-231; test: Cell growth, MDA-MB-231 breast cancer cell line; details: MDA-MB-231, increasing concentrations, compared with K103
# Protocol: as §2, §3
# [13] = High fat diet (diet-induced obese) mice: weight, bone health, toxicity; details: HFD mice, 2× week, i.p., 10 mg/kg, two weeks
# [14] = test system: HCT116, RKO, LS-174T, CACO-2 and COLO 320; test: Cell viability in colorectal cancer cell lines with and without PI3K mutations; details: 3 cell lines with PIK3CA mutation, 2 without
# Protocol: Cell lines. […] Colorectal cancer cell lines HCT116 CACO-2, COLO 320, and RKO were cultured in Dulbecco's Modified Eagles Medium (DMEM, Lonza, Basel, Switzerland). […] All cell culture media were supplemented with 100 U/mL penicillin, 100 mg/mL streptomycin (Life technologies, Bleiswijk, NL) and 10% Fecal Calf Serum (FCS, Sigma-Aldrich, St. Louis, USA). Cells were maintained at 37° C. in a 5% CO2 humidified setting.
# Cell viability assay. Cell viability was assessed using MTT assays. Cells were incubated with different concentrations of SHIP2 inhibitors, and/or chemotherapeutic agent 5-FU. 24 h, 48 h, 72 h, and 96 h after incubation cells were incubated with 5 mM MTT (3-(4,5-Dimethylthiazol-2-yl)-2,5-diphenyltetrazolium bromide) for 3 h and colorimetric changes were measured using a microplate reader (Model 680XR Bio-Rad) at 490 and 595 nm.
compound,measurement,setting,value
Cc1c(CCN)c2ccccc2n1Cc1ccccc1Cl.Cl,melting point,,161 to 169 °C
"CSc1ccc2c(c1)c(CCN)c(C)n2Cc1ccc(Cl)cc1.Cl [Compound K103, reference compound]",SHIP2 activity,"[1]; recombinant SHIP2, 500 uM, vs vehicle control (DMSO), FIG. 5",inhibition of the SHIP2 activity
same,cell viability (MTT),[2]; hydrochloride,dose-dependent reduction in cell viability; also recorded: induced cell death at lower concentrations in HCT116 cells than CACO-2 cells; also recorded: dose-dependent cell death
same,cell viability (MTT),[3]; hydrochloride,dose-dependent reduction in cell viability; also recorded: dose-dependent cell death
same,killing breast cancer cells,[4],effective in killing breast cancer cells
"Cc1c(CCN)c2ccccc2n1Cc1ccccc1.Cl [Compound K123, 2-[1-benzyl-2-methyl-5-1H-3-yl] ethanaminium chloride]",melting point,,158 to 161 °C
same,SHIP1 Inhibition,[5],15%
"Cc1c(CCN)c2ccccc2n1Cc1ccccc1Cl.Cl [Compound K124, 2-[1-(2-chlorobenzyl)-2-methyl-5-1H-3-yl] ethanaminium chloride]",SHIP2 Inhibition,[1],70%
same,SHIP1 Inhibition,[5],62%
"CSc1ccc2c(c1)c(CCN)c(C)n2Cc1ccccc1.Cl [Compound K125, 2-[1-benzyl-2-methyl-5-(methylmercapto)-1H-3-yl] ethanaminium chloride]",SHIP2 Inhibition,[1],80%
same,melting point,,178 to 189 °C
same,SHIP1 Inhibition,[5],64%
"Cc1c(CCN)c2cc(Br)ccc2n1Cc1ccccc1Cl.Cl [Compound K148, 2-[1-(2-chlorobenzyl)-2-methyl-5-(bromo)-1H-3-yl] ethanaminium chloride]",SHIP2 Inhibition,[1],70%
same,SHIP1 Inhibition,[5],77%
"CSc1ccc2c(c1)c(CCN)c(C)n2Cc1ccc(Cl)cc1Cl.Cl [Compound K149, 2-[1-(2,4-dichlorobenzyl)-2-methyl-5-(methylmercapto)-1H-3-yl] ethanaminium chloride]",cell viability (MTT),[2],dose-dependent reduction in cell viability; also recorded: more sensitive to the K149 inhibitor; also recorded: induced cell death at lower concentrations in HCT116 cells than CACO-2 cells; also recorded: dose-dependent cell death
same,5-FU-induced cell death with SHIP2 inhibitor co-treatment,"[2]; HCT116, K149 2 uM with increasing concentrations of 5-FU",sensitizes CRC cells to the 5-FU treatment; also recorded: enhanced
same,cell viability (MTT),[3],dose-dependent reduction in cell viability; also recorded: more sensitive to the K149 inhibitor; also recorded: dose-dependent cell death
same,5-FU-induced cell death with SHIP2 inhibitor co-treatment,"[3]; CACO-2, K149 2 uM with increasing concentrations of 5-FU",sensitizes CRC cells to the 5-FU treatment; also recorded: enhanced
same,ERK phosphorylation,[6],not affected by either inhibitor; also recorded: affected by neither inhibitor
same,PKB phosphorylation,[6],diminished; also recorded: decreased
same,pS6 phosphorylation,[6],drastically increased
same,ERK phosphorylation,[7],not affected by either inhibitor; also recorded: affected by neither inhibitor
same,PKB phosphorylation,[7],diminished; also recorded: decreased
same,pS6 phosphorylation,[7],drastically increased
same,MDSC counts,[8],significant increases
same,iTreg cell counts,[8],significant increases
same,nTreg cell counts,[8],significant increases
same,neutrophil counts,[8],significant increases
same,control of cancer cell growth,[9],more effective at controlling cancer cell growth
same,control of cancer cell growth,[10],more effective at controlling cancer cell growth
same,control of cancer cell growth,[11],more effective at controlling cancer cell growth
same,control of cancer cell growth,[12],more effective at controlling cancer cell growth
same,effects compared to K103,"[5]; FIG. 1A-C, FIG. 1C is recombinant human tSHIP1",superior effects compared to K103
same,SHIP1 Inhibition,[5],81%
same,% body weight,[13],significant reductions
same,total weight,[13],significant reductions; also recorded: promotes weight loss
same,toxicity,[13],No toxicity was observed
same,bone mineral content (BMC),[13]; DEXA,no significant reduction or increase
same,bone mineral density (BMD),[13]; DEXA,no significant reduction or increase
same,sensitivity by PI3K (PIK3CA) mutational status,[14],no difference in sensitivity to SHIP2 inhibition based on PIK3CA mutational status; also recorded: No relationship between SHIP2 inhibition and PI3K mutational status exists
"CSc1ccc2c(c1)c(CCN)c(C)n2Cc1ccc(Cl)cc1.Cl [Compound K160, 2-[1-(4-chlorobenzyl)-2-methyl-5-(methylmercapto)-1H-3-yl] ethanaminium chloride]",SHIP2 Inhibition,[1],61%
same,melting point,,198 to 209 °C
same,SHIP1 Inhibition,[5],78%
"EGF: Epidermal Growth Factor, used to stimulate cellular signaling [reference compound]",ERK phosphorylation,[6],increased
same,PKB phosphorylation,[6],increased
same,pS6 phosphorylation,[6],increased
same,ERK phosphorylation,[7],increased
same,PKB phosphorylation,[7],increased
same,pS6 phosphorylation,[7],increased

# Reference: patent US10736877B2, “Tryptamine-based ship inhibitors for the treatment of cancer” (THE RESEARCH FOUNDATION FOR THE STATE UNIVERSITY OF NEW YORK, priority 2015, dated 2020)
